Like-named read-outs stand apart in the source and are kept apart here.
What was measured:
[1] = target: BTK enzyme (recombinant full-length BTK, hBTK) (Homo sapiens (Human), UniProt Q06187); test: BTK enzymatic activity LANCE TR-FRET assay; format: biochemical; conditions: 50 pM hBTK, 25 μM ATP, 2 μM biotin-A5-peptide; compound range 1 μM to 0.017 nM; read-out: BTK binding IC50
[2] = test system: adenosine uptake into HeLa cells; test: [3H]Adenosine uptake assay in HeLa cells; format: cell-based; conditions: [3H]adenosine accumulation in HeLa cells, compound range 10 μM to 0.032 nM, read-out: ADU inhibition IC50
Method in brief: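 HeLa cells in HBSS + 5% FBS were preincubated 30 min at ambient temperature with compound (ten-point 1:3 series, 10 µM–[…] final), then given [3H]adenosine (added as a 500 nM solution) for 60 min. Cell-associated label was read by scintillating-plate proximity counting; IC50 from 4-parameter fit of cps versus log concentration.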

BTK enzyme (recombinant full-length BTK, hBTK), sequence (Q06187 whole entry): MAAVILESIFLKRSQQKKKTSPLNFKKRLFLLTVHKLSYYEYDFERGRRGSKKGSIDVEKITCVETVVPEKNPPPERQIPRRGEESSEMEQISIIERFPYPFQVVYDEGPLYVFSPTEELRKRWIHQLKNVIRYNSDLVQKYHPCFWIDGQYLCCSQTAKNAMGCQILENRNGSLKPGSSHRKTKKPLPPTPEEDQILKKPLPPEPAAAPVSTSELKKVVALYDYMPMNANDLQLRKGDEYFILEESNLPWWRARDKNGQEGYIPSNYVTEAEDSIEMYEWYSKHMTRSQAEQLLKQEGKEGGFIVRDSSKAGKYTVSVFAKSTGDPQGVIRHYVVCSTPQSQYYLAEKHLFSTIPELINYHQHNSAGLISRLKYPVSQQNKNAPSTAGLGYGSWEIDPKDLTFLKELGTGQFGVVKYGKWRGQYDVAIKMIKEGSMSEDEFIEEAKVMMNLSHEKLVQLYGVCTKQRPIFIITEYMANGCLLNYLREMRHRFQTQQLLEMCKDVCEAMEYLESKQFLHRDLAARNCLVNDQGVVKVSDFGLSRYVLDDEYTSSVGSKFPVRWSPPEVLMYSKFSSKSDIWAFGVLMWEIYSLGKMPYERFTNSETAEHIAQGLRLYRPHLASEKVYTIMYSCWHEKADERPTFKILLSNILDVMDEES

COc1cc(-c2nc([C@@H]3CC[C@H]4CCC(=O)N4C3)n3ccnc(N)c23)ccc1C(C)(O)c1cccc(C(F)(F)F)c1 (stereo partly drawn) [Example 65, (6R,8aS)-6-[8-amino-1-(4-{1-hydroxy-1-[3-(trifluoromethyl)phenyl]ethyl}-3-methoxyphenyl)imidazo [1,5-a]pyrazin-3-yl]hexahydroindolizin-3(2H)-one]
IC50 [1]: 7 nM
IC50 [2]: 10000 nM

C[C@@](O)(c1ccc(-c2nc([C@@H]3CC[C@H]4CCC(=O)N4C3)n3ccnc(N)c23)cc1)c1cccc(N2CCOCC2)c1 [Example 66, (6R,8aS)-6-(8-amino-1-{4-[(1R)-1-hydroxy-1-(3-morpholin-4-ylphenyl)ethyl]phenyl}imidazo[1,5-a]pyrazin-3-yl)hexahydroindolizin-3(2H)-one]
IC50 [1]: 796 nM
IC50 ([2]; Homo sapiens, HeLa): 4190 nM

C[C@](O)(c1ccc(-c2nc([C@@H]3CC[C@H]4CCC(=O)N4C3)n3ccnc(N)c23)cc1)c1cccc(N2CCOCC2)c1 [Example 67, (6R,8aS)-6-(8-amino-1-{4-[(1S)-1-hydroxy-1-(3-morpholin-4-ylphenyl)ethyl]phenyl}imidazo[1,5-a]pyrazin-3-yl)hexahydroindolizin-3(2H)-one]
IC50 [1]: 15.4 nM
IC50 ([2]; Homo sapiens, HeLa): 8500 nM

C[C@](O)(c1ccc(-c2nc([C@@H]3CC[C@H]4CCC(=O)N4C3)n3ccnc(N)c23)cc1)c1ccccc1F [Example 68, (6R,8aS)-6-(8-amino-1-{4-[(1S)-1-(2-fluorophenyl)-1-hydroxyethyl]phenyl}imidazo[1,5-a]pyrazin-3-yl)hexahydroindolizin-3(2H)-one]
IC50 [1]: 460 nM
IC50 ([2]; Homo sapiens, HeLa): 5550 nM

C[C@@](O)(c1ccc(-c2nc([C@@H]3CC[C@H]4CCC(=O)N4C3)n3ccnc(N)c23)cc1)c1ccccc1F [Example 69, (6R,8aS)-6-(8-amino-1-{4-[(1R)-1-(2-fluorophenyl)-1-hydroxyethyl]phenyl}imidazo[1,5-a]pyrazin-3-yl)hexahydroindolizin-3(2H)-one]
IC50 [1]: 4.9 nM
IC50 ([2]; Homo sapiens, HeLa): 6470 nM

C[C@](O)(c1ccc(-c2nc([C@@H]3CC[C@H]4CCC(=O)N4C3)n3ccnc(N)c23)cc1)c1cccc(C(F)F)c1 [Example 70, (6R,8aS)-6-[8-amino-1-(4-{(1S)-1-[3-(difluoromethyl)phenyl]-1-hydroxyethyl}phenyl)imidazo[1,5-a]pyrazin-3-yl]hexahydroindolizin-3(2H)-one]
IC50 [1]: 30.4 nM
IC50 ([2]; Homo sapiens, HeLa): 1010 nM

C[C@@](O)(c1ccc(-c2nc([C@@H]3CC[C@H]4CCC(=O)N4C3)n3ccnc(N)c23)cc1)c1cccc(C(F)F)c1 [Example 71, (6R,8aS)-6-[8-amino-1-(4-{(1R)-1-[3-(difluoromethyl)phenyl]-1-hydroxyethyl}phenyl)imidazo[1,5-a]pyrazin-3-yl]hexahydroindolizin-3(2H)-one]
IC50 [1]: 0.19 nM
IC50 ([2]; Homo sapiens, HeLa): 5120 nM

Nc1nccn2c([C@@H]3CC[C@H]4CCC(=O)N4C3)nc(-c3ccc(C(O)c4cccc(C(F)(F)F)c4)cc3)c12 (stereo partly drawn) [Example 72, (6R,8aS)-6-[8-amino-1-(4-{hydroxy[3-(trifluoromethyl)phenyl]methyl}phenyl)imidazo [1,5-a]pyrazin-3-yl]hexahydroindolizin-3(2H)-one]
IC50 [1]: 20.4 nM
IC50 [2]: 469 nM

Nc1nccn2c([C@@H]3CC[C@H]4CCC(=O)N4C3)nc(-c3ccc(C(O)c4cccc(C(F)(F)F)c4)cc3)c12 (stereo partly drawn) [Example 73, (6R,8aS)-6-[8-amino-1-(4-{hydroxy[3-(trifluoromethyl)phenyl]methyl}phenyl)imidazo [1,5-a]pyrazin-3-yl]hexahydroindolizin-3(2H)-one]
IC50 [1]: 0.41 nM
IC50 [2]: 1350 nM

CC(C)c1cccc([C@@](C)(O)c2ccc(-c3nc([C@@H]4CC[C@H]5CCC(=O)N5C4)n4ccnc(N)c34)cc2)c1 [Example 74, (6R,8aS)-6-[8-amino-1-(4-{(1S)-1-hydroxy-1-[3(1-methylethyl)phenyl]ethyl}phenyl)imidazo[1,5-a]pyrazin-3-yl]hexahydroindolizin-3(2H)-one]
IC50 [1]: 15 nM
IC50 ([2]; Homo sapiens, HeLa): 463 nM

CC(C)c1cccc([C@](C)(O)c2ccc(-c3nc([C@@H]4CC[C@H]5CCC(=O)N5C4)n4ccnc(N)c34)cc2)c1 [Example 75, (6R,8aS)-6-[8-amino-1-(4-{(1R)-1-hydroxy-1-[3(1-methylethyl)phenyl]ethyl}phenyl)imidazo[1,5-a]pyrazin-3-yl]hexahydroindolizin-3(2H)-one]
IC50 [1]: 0.21 nM
IC50 ([2]; Homo sapiens, HeLa): 2010 nM

CC(C)C(O)(c1ccc(-c2nc([C@@H]3CC[C@H]4CCC(=O)N4C3)n3ccnc(N)c23)cc1)c1cccc(C(F)(F)F)c1 (stereo partly drawn) [Example 76, (6R,8aS)-6-[8-amino-1-(4-{1-hydroxy-2-methyl-1-[3-(trifluoromethyl)phenyl]propyl}phenyl)imidazo [1,5-a]pyrazin-3-yl]hexahydroindolizin-3(2H)-one]
IC50 [1]: 1000 nM
IC50 ([2]; Homo sapiens, HeLa): 2100 nM

C[C@](O)(c1ccc(-c2nc([C@@H]3CC[C@H]4CCC(=O)N4C3)n3ccnc(N)c23)cc1)c1cccc(CC(F)(F)F)c1 [Example 77, (6R,8aS)-6-[8-amino-1-(4-{(1S)-1-hydroxy-1-[3-(2,2,2-trifluoroethyl)phenyl]ethyl}phenyl)imidazo[1,5-a]pyrazin-3-yl]hexahydroindolizin-3(2H)-one]
IC50 [1]: 24.2 nM
IC50 ([2]; Homo sapiens, HeLa): 1040 nM

C[C@@](O)(c1ccc(-c2nc([C@@H]3CC[C@H]4CCC(=O)N4C3)n3ccnc(N)c23)cc1)c1cccc(CC(F)(F)F)c1 [Example 78, (6R,8aS)-6-[8-amino-1-(4-{(1R)-1-hydroxy-1-[3-(2,2,2-trifluoroethyl)phenyl]ethyl}phenyl)imidazo[1,5-a]pyrazin-3-yl]hexahydroindolizin-3(2H)-one]
IC50 [1]: 0.17 nM
IC50 ([2]; Homo sapiens, HeLa): 2850 nM

CC(C)C(O)(c1ccc(-c2nc([C@@H]3CC[C@H]4CCC(=O)N4C3)n3ccnc(N)c23)cc1)c1cccc(C(F)(F)F)c1 (stereo partly drawn) [Example 79, (6R,8aS)-6-[8-amino-1-(4-{1-hydroxy-2-methyl-1-[3-(trifluoromethyl)phenyl]propyl}phenyl)imidazo [1,5-a]pyrazin-3-yl]hexahydroindolizin-3(2H)-one]
IC50 [1]: 204 nM
IC50 [2]: 1470 nM

C[C@@](O)(c1cccc(C(F)(F)F)c1)c1ccc(-c2nc([C@@H]3CC[C@H]4CCC(=O)N4C3)n3ccnc(N)c23)c(C(F)F)c1 [Example 80, (6R,8aS)-6-{8-amino-1-[2-(difluoromethyl)-4-{(1S)-1-hydroxy-1-[3-(trifluoromethyl)phenyl]ethyl}phenyl]imidazo [1,5-a]pyrazin-3-yl}-hexahydroindolizin-3(2H)-one]
IC50 [1]: 808 nM
IC50 ([2]; Homo sapiens, HeLa): 1730 nM

C[C@](O)(c1cccc(C(F)(F)F)c1)c1ccc(-c2nc([C@@H]3CC[C@H]4CCC(=O)N4C3)n3ccnc(N)c23)c(C(F)F)c1 [Example 81, (6R,8aS)-6-{8-amino-1-[2-(difluoromethyl)-4-{(1R)-1-hydroxy-1-[3-(trifluoromethyl)phenyl]ethyl}phenyl]imidazo [1,5-a]pyrazin-3-yl}hexahydroindolizin-3(2H)-one]
IC50 [1]: 1000 nM
IC50 ([2]; Homo sapiens, HeLa): 684 nM

C[C@](O)(c1ccc(-c2nc([C@@H]3CC[C@H]4CCC(=O)N4C3)n3ccnc(N)c23)cc1)c1cccc(C2CCC2)c1 [Example 82, (6R,8aS)-6-(8-amino-1-{4-[(1S)-1-(3-cyclobutylphenyl)-1-hydroxyethyl]phenyl]imidazo[1,5-a]pyrazin-3-yl)hexahydroindolizin-3(2H)-one]
IC50 [1]: 4.7 nM
IC50 ([2]; Homo sapiens, HeLa): 746 nM

C[C@@](O)(c1ccc(-c2nc([C@@H]3CC[C@H]4CCC(=O)N4C3)n3ccnc(N)c23)cc1)c1cccc(C2CCC2)c1 [Example 83, (6R,8aS)-6-(8-amino-1-{4-[(1R)-1-(3-cyclobutylphenyl)-1-hydroxyethyl]phenyl}imidazo[1,5-a]pyrazin-3-yl)hexahydroindolizin-3(2H)-one]
IC50 [1]: 0.12 nM
IC50 ([2]; Homo sapiens, HeLa): 1330 nM

C[C@](O)(c1ccc(-c2nc([C@@H]3CC[C@H]4CCC(=O)N4C3)n3ccnc(N)c23)cc1)c1cccc(C#N)c1 [Example 84, 3-[(1S)-1-(4-{8-amino-3-[(6R,8aS)-3-oxooctahydroindolizin-6-yl]imidazo[1,5-a]pyrazin-1-yl}phenyl)-1-hydroxyethyl]benzonitrile]
IC50 [1]: 1000 nM
IC50 ([2]; Homo sapiens, HeLa): 2380 nM

C[C@@](O)(c1ccc(-c2nc([C@@H]3CC[C@H]4CCC(=O)N4C3)n3ccnc(N)c23)cc1)c1cccc(C#N)c1 [Example 85, 3-[(1R)-1-(4-{8-amino-3-[(6R,8aS)-3-oxooctahydroindolizin-6-yl]imidazo[1,5-a]pyrazin-1-yl}phenyl)-1-hydroxyethyl]benzonitrile]
IC50 [1]: 23.4 nM
IC50 ([2]; Homo sapiens, HeLa): 3530 nM

Nc1nccn2c([C@@H]3CC[C@H]4CCC(=O)N4C3)nc(-c3ccc(C(O)(c4cccc(C(F)(F)F)c4)C4CC4)cc3)c12 (stereo partly drawn) [Example 86, (6R,8aS)-6-[8-amino-1-(4-{cyclopropyl(hydroxy)[3-(trifluoromethyl)phenyl]methyl}phenyl)imidazo [1,5-a]pyrazin-3-yl]hexahydroindolizin-3(2H)-one]
IC50 [1]: 1000 nM
IC50 [2]: 589 nM

Nc1nccn2c([C@@H]3CC[C@H]4CCC(=O)N4C3)nc(-c3ccc(C(O)(c4cccc(C(F)(F)F)c4)C4CC4)cc3)c12 (stereo partly drawn) [Example 87, (6R,8aS)-6-[8-amino-1-(4-{cyclopropyl(hydroxy)[3-(trifluoromethyl)phenyl]methyl}phenyl)imidazo [1,5-a]pyrazin-3-yl]hexahydroindolizin-3(2H)-one]
IC50 [1]: 123 nM
IC50 [2]: 1580 nM

CC(O)(c1cccc(C(F)(F)F)c1)c1ccc(-c2nc([C@@H]3CC[C@H]4CCC(=O)N4C3)n3ccnc(N)c23)c(C2CC2)c1 (stereo partly drawn) [Example 88, (6R,8aS)-6-[8-amino-1-(2-cyclopropyl-4-{1-hydroxy-1-[3-(trifluoromethyl)phenyl]ethyl}phenyl)imidazo [1,5-a]pyrazin-3-yl]hexahydroindolizin-3(2H)-one]
IC50 [1]: 576 nM
IC50 ([2]; Homo sapiens, HeLa): 1100 nM

Reference: US10214546B2, “Btk inhibitors” (MERCK SHARP & DOHME CORP., priority 2014, dated 2019)
